# Test results published in patent publication US10717734B2, “Indole and azaindole haloallylamine derivative inhibitors of lysyl oxidases and uses thereof” (PHARMAXIS LTD., priority 2016, dated 2020).
# Structures can show the parent of a compound that is named as a salt.
# Legend:
# Type in all cases: biochemical
# [1] = biological target: Bovine LOX (Bos taurus (Bovine), UniProt P33072); test: LOX inhibition, peroxidase-coupled Amplex Red amine oxidase assay; details: 30 min preincubation at 37° C., putrescine substrate
# Sequence of Bovine LOX (P33072 170-418): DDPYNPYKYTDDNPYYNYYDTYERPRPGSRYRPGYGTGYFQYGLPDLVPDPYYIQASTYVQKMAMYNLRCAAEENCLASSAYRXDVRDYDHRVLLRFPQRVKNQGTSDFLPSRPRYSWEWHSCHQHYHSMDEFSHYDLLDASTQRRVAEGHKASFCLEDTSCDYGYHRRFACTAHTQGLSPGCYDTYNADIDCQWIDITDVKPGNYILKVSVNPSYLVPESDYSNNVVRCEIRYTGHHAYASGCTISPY
# Excerpt: (§1) Method to Determine the Ability of Compounds of the Invention to Inhibit LOX and LOXL1-4 from Different Sources
# Lysyl oxidase (LOX) is an extracellular copper dependent enzyme which oxidizes peptidyl lysine and hydroxylysine residues in collagen and lysine residues in elastin to produce peptidyl alpha-aminoadipic-delta-semialdehydes. […] There are five LOX family members; these are LOX, LOXL1, LOXL2, LOXL3 and LOXL4. LOX and LOXL family members can be acquired as recombinant active proteins from commercial sources, or extracted from animal tissues like bovine aorta, tendons, pig skin; or prepared from cell cultures. The inhibitory effects of the compounds of the present invention were tested against the given LOX-LOXL preparation using a high-throughput coupled colorimetric method (Holt A. and Palcic M., A peroxidase-coupled continuous absorbance plate-reader assay for flavin monoamine oxidases, copper-containing amine oxidases and related enzymes. Nat. Protoc. 2006; 1: 2498-2505). The assay was developed using either 384 or 96 well format. Briefly, in a standard 384 well plate assay 25 μL of a dilution of any of the isoenzymes and orthologues in 1.2 M urea, 50 mM sodium borate buffer (pH 8.2) were added into each well in the presence of 1 μM mofegiline and 0.5 mM pargyline (to inhibit SSAO and MAO-B and MAO-A, respectively). […] Twenty five μL of a reaction mixture containing twice the KM concentration of putrescine (Sigma Aldrich, e.g. 20 mM for LOX, or 10 mM for LOXL2 and LOXL3), 120 μM Amplex Red (Sigma Aldrich) and 1.5 U/mL horseradish peroxidase (Sigma Aldrich) prepared in 1.2 M urea, 50 mM sodium borate buffer (pH 8.2) were then added to the corresponding wells. The above volumes were doubled in the case of 96 wells plate. The fluorescence (RFU) was read every 2.5 min for 30 min at a range of temperatures from 37° to 45° C., excitation 565 nm and emission 590 (Optima; BMG labtech). The slope of the kinetics for each well was calculated using MARS data analysis software (BMG labtech) and this value was used to deduce the IC50 value (Dotmatics).
# [2] = biological target: Human LOXL2 (Homo sapiens (Human), UniProt Q9Y4K0); test: LOXL2 inhibition, peroxidase-coupled Amplex Red amine oxidase assay; details: 30 min preincubation at 37° C., putrescine substrate
# Sequence of Human LOXL2 (Q9Y4K0 26-774): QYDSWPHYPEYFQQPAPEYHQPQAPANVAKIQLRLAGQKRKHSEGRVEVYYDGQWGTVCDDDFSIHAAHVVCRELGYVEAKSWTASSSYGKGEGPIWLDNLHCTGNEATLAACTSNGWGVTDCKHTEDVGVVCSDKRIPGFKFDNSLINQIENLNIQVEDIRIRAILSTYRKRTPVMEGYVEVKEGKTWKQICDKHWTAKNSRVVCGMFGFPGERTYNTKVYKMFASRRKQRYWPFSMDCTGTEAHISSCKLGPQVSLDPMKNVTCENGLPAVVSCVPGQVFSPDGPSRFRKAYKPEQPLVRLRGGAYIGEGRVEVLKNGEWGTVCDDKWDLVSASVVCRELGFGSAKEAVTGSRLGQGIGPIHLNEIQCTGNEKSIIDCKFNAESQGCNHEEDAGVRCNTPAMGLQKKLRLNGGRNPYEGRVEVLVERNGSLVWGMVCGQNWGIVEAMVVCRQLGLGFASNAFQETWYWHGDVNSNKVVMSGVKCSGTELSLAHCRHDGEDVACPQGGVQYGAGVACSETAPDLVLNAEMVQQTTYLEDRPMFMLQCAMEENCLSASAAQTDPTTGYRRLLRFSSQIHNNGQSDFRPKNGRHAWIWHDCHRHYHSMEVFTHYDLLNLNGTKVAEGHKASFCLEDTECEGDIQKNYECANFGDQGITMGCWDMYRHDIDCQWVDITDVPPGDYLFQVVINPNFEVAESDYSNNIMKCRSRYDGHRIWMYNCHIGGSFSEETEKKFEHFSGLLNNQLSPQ
# Excerpt: as §1
# Lysyl oxidase (LOX) is an extracellular copper dependent enzyme which oxidizes peptidyl lysine and hydroxylysine residues in collagen and lysine residues in elastin to produce peptidyl alpha-aminoadipic-delta-semialdehydes. […] There are five LOX family members; these are LOX, LOXL1, LOXL2, LOXL3 and LOXL4. LOX and LOXL family members can be acquired as recombinant active proteins from commercial sources, or extracted from animal tissues like bovine aorta, tendons, pig skin; or prepared from cell cultures. The inhibitory effects of the compounds of the present invention were tested against the given LOX-LOXL preparation using a high-throughput coupled colorimetric method (Holt A. and Palcic M., A peroxidase-coupled continuous absorbance plate-reader assay for flavin monoamine oxidases, copper-containing amine oxidases and related enzymes. Nat. Protoc. 2006; 1: 2498-2505). The assay was developed using either 384 or 96 well format. Briefly, in a standard 384 well plate assay 25 μL of a dilution of any of the isoenzymes and orthologues in 1.2 M urea, 50 mM sodium borate buffer (pH 8.2) were added into each well in the presence of 1 μM mofegiline and 0.5 mM pargyline (to inhibit SSAO and MAO-B and MAO-A, respectively). Test compounds were dissolved in DMSO and tested in a Concentration Response Curve (CRC) with 11 data points, typically in the micromolar or nanomolar range after incubation with the enzyme for 30 min at 37° C. Twenty five μL of a reaction mixture containing twice the KM concentration of putrescine (Sigma Aldrich, e.g. 20 mM for LOX, or 10 mM for LOXL2 and LOXL3), 120 μM Amplex Red (Sigma Aldrich) and 1.5 U/mL horseradish peroxidase (Sigma Aldrich) prepared in 1.2 M urea, 50 mM sodium borate buffer (pH 8.2) were then added to the corresponding wells. The above volumes were doubled in the case of 96 wells plate. The fluorescence (RFU) was read every 2.5 min for 30 min at a range of temperatures from 37° to 45° C., excitation 565 nm and emission 590 (Optima; BMG labtech). The slope of the kinetics for each well was calculated using MARS data analysis software (BMG labtech) and this value was used to deduce the IC50 value (Dotmatics).
# [3] = biological target: Human recombinant SSAO/VAP-1 (Homo sapiens (Human), UniProt Q16853); test: Human recombinant SSAO/VAP-1 amine oxidase inhibition; details: 30 min preincubation at 37° C., 600 μM benzylamine
# Sequence of Human recombinant SSAO/VAP-1 (Q16853 34-763): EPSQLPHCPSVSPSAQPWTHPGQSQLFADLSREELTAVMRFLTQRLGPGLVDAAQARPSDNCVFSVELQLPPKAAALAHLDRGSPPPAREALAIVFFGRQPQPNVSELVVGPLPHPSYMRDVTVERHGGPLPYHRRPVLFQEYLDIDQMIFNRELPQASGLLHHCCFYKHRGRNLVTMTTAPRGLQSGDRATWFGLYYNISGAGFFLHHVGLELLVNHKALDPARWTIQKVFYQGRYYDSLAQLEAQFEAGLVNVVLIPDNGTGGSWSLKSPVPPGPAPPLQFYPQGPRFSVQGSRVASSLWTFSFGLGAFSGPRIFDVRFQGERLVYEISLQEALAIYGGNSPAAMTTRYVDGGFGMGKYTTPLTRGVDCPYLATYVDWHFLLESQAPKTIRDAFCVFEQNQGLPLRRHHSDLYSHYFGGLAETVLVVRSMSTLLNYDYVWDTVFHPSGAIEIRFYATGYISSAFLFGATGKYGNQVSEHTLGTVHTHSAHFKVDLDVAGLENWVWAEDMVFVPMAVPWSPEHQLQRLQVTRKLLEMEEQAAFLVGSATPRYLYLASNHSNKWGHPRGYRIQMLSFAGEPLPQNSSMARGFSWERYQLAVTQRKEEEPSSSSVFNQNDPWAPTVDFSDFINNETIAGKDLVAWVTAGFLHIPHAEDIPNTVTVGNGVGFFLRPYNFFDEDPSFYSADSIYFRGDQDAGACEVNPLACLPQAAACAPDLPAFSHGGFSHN
# Description: Method to Determine the Ability of Compounds of Formula I to Inhibit Human Recombinant SSAO/VAP-1
# Human recombinant SSAO/VAP-1 amine oxidase activity was determined using the coupled colorimetric method as described for monoamine oxidase, copper-containing amine oxidases and related enzymes (Holt A. and Palcic M., A peroxidase-coupled continuous absorbance plate-reader assay for flavin monoamine oxidases, copper-containing amine oxidases and related enzymes. Nat Protoc 2006; 1: 2498-2505). Briefly, a cloned cDNA template corresponding to residues 34-763 of human SSAO/VAP-1, and incorporating a mouse Ig kappa (κ) signal sequence, N-terminal flag epitope tag and tobacco etch virus (TEV) cleavage site, was assembled in a mammalian expression vector (pLO-CMV) by Geneart AG. This vector containing human SSAO/VAP-1 residues was transfected into CHO-K1 glycosylation mutant cell line, Lec 8. A clone stably expressing human SSAO/VAP-1 was isolated and cultured in large scale. Active human SSAO/VAP-1 was purified and recovered using immunoaffinity chromatography. This was used as the source for SSAO/VAP-1 activity. A high-throughput colorimetric assay was developed using either 96 or 384 well format. Briefly, in a standard 96 well plate assay 50 μL of purified human SSAO/VAP-1 (0.25 μg/mL) in 0.1 M sodium phosphate buffer (pH 7.4) was added into each well. Test compounds were dissolved in DMSO and tested in a Concentration Response Curve (CRC) with 4-11 data points, typically in the micromolar or nanomolar range after incubation with human SSAO/VAP-1 for 30 min at 37° C. After 30 min incubation, 50 μL of the reaction mixture containing 600 μM benzylamine (Sigma Aldrich), 120 μM Amplex Red (Sigma Aldrich) and 1.5 U/mL horseradish peroxidase (Sigma Aldrich) prepared in 0.1 M sodium phosphate buffer (pH 7.4) were added to the corresponding well. The fluorescence unit (RFU) was read every 2.5 min for 30 min at 37° C. excitation 565 nm and emission 590 (Optima; BMG labtech). The slope of the kinetics for each well was calculated using MARS data analysis software (BMG labtech) and this value was used to deduce the IC50 value (Dotmatics).
# [4] = biological target: Recombinant human MAO-B (Homo sapiens (Human), UniProt P27338); test: Human recombinant MAO-B inhibition; details: benzylamine 100 μM
# Sequence of Recombinant human MAO-B (P27338 whole entry): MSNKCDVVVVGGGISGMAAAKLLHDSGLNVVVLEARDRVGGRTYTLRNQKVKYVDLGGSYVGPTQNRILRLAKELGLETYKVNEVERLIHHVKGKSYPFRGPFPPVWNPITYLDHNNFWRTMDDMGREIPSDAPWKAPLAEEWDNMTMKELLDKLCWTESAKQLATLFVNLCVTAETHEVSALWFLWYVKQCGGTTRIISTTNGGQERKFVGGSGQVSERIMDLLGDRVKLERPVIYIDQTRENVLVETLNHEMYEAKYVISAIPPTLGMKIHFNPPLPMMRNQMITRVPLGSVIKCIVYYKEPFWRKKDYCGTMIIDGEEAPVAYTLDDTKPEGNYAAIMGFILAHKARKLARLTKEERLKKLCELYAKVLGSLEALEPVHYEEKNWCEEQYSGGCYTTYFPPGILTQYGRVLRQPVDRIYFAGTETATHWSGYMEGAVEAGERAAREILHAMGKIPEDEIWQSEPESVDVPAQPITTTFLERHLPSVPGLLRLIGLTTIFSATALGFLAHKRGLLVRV
# Description: Method to Determine the Ability of Compounds of Formula I to Inhibit Human Recombinant MAO-B
# The specificity of the compounds of this invention was tested by determining their ability to inhibit MAO-B activities in vitro. Recombinant human MAO-B (0.06 mg/mL; Sigma Aldrich) was used as source of MAO-B enzyme activities. The assay was performed in a similar way as for human SSAO/VAP-1 (Example 36) except, the substrate benzylamine was used at 100 μM.
Compound,IC50 [1] [nM],IC50 [2] [nM],IC50 [3] [nM],IC50 [4] [nM]
"Cc1cc2c(nn1)c(Cc1ccc(S(=O)(=O)N(C)C)cc1)c(C)n2C/C(F)=C/CN [Compound 37, (Z)-4-((5-(4-amino-2-fluorobut-2-en-1-yl)-3,6-dimethyl-5H-pyrrolo[3,2-c]pyridazin-7-yl)methyl)-N,N-dimethylbenzenesulfonamide dihydrochloride]",> 300,< 300,> 3000,> 3000
"Cc1c(Cc2ccc(S(=O)(=O)N(C)C)cc2)c2nc(C(C)(C)O)ccc2n1C/C(F)=C/CN [Compound 28, (Z)-4-((1-(4-amino-2-fluorobut-2-en-1-yl)-5-(2-hydroxypropan-2-yl)-2-methyl-1H-pyrrolo[3,2-b]pyridin-3-yl)methyl)-N,N-dimethylbenzenesulfonamide dihydrochloride]",> 300,< 300,> 3000,> 3000
"Cc1c(Cc2ccc(S(=O)(=O)N(C)C)cc2)c2cc(C(N)=O)ccc2n1C/C(F)=C/CN [Compound 4, (Z)-1-(4-amino-2-fluorobut-2-en-1-yl)-3-(4-(N,N-dimethylsulfamoyl)benzyl)-2-methyl-1H-indole-5-carboxamide hydrochloride]",> 300,< 300,> 3000,> 3000
"Cc1ccc2c(n1)c(Cc1ccc(S(=O)(=O)N(C)C)cn1)c(C)n2C/C(F)=C/CN [Compound 15, (Z)-6-((1-(4-amino-2-fluorobut-2-en-1-yl)-2,5-dimethyl-1H-pyrrolo[3,2-b]pyridin-3-yl)methyl)-N,N-dimethylpyridine-3-sulfonamide trihydrochloride]",> 300,< 300,> 3000,> 3000
"Cc1c(Cc2cccc(S(=O)(=O)N(C)C)c2)c2ncccc2n1C/C(F)=C/CN [Compound 18, dihydrochloride]",> 300,< 300,> 3000,> 3000
"Cc1cc2c(nc1O)c(Cc1ccc(S(=O)(=O)N(C)C)cc1)c(C)n2C/C(F)=C/CN [Compound 19, (Z)-4-((1-(4-amino-2-fluorobut-2-en-1-yl)-5-hydroxy-2,6-dimethyl-1H-pyrrolo[3,2-b]pyridin-3-yl)methyl)-N,N-dimethylbenzenesulfonamide dihydrochloride]",> 300,< 300,> 3000,> 3000
"CC(C)c1c(Cc2ccc(S(=O)(=O)C3CC3)nc2)c2ncccc2n1C/C(F)=C/CN [Compound 44, (Z)-4-(3-((6-(cyclopropylsulfonyl)pyridin-3-yl)methyl)-2-isopropyl-1H-pyrrolo[3,2-b]pyridin-1-yl)-3-fluorobut-2-en-1-amine dihydrochloride]",> 300,< 300,–,–
"Cc1c(Cc2ccc(S(=O)(=O)N(C)C)cc2)c2ncc(F)cc2n1C/C(F)=C/CN [Compound 24, (Z)-4-((1-(4-amino-2-fluorobut-2-en-1-yl)-6-fluoro-2-methyl-1H-pyrrolo[3,2-b]pyridin-3-yl)methyl)-N,N-dimethylbenzenesulfonamide dihydrochloride]",> 300,< 300,> 3000,> 3000
"Cc1ccc2c(n1)c(Cc1ccc(S(C)(=O)=O)nc1)c(C)n2C/C(F)=C/CN [Compound 13, (Z)-4-(2,5-dimethyl-3-((6-(methylsulfonyl)pyridin-3-yl)methyl)-1H-pyrrolo[3,2-b]pyridin-1-yl)-3-fluorobut-2-en-1-amine trihydrochloride]",> 300,< 300,> 3000,> 3000
"Cc1c(Cc2ccc(S(=O)(=O)N(C)C)cc2)c2nc(F)ccc2n1C/C(F)=C/CN [Compound 23, (Z)-4-((1-(4-amino-2-fluorobut-2-en-1-yl)-5-fluoro-2-methyl-1H-pyrrolo[3,2-b]pyridin-3-yl)methyl)-N,N-dimethylbenzenesulfonamide dihydrochloride]",> 300,< 300,> 3000,> 3000
"Cc1c(Cc2ccc(S(=O)(=O)N(C)C)cc2)c2cc(S(=O)(=O)N(C)C)ccc2n1C/C(F)=C/CN [Compound 6, (Z)-1-(4-amino-2-fluorobut-2-en-1-yl)-3-(4-(N,N-dimethylsulfamoyl)benzyl)-N,N,2-trimethyl-1H-indole-5-sulfonamide hydrochloride]",> 300,< 300,> 3000,> 3000
"Cc1c(Cc2ccc(S(=O)(=O)N(C)C)cc2)c2cc(C(=O)O)ccc2n1C/C(F)=C/CN [Compound 1, (Z)-1-(4-amino-2-fluorobut-2-en-1-yl)-3-(4-(N,N-dimethylsulfamoyl)benzyl)-2-methyl-1H-indole-5-carboxylic acid hydrochloride]",> 300,< 300,> 3000,> 3000
"CCS(=O)(=O)c1ccc(Cc2c(C(C)C)n(C/C(F)=C/CN)c3cccnc23)cn1 [Compound 43, (Z)-4-(3-((6-(ethylsulfonyl)pyridin-3-yl)methyl)-2-isopropyl-1H-pyrrolo[3,2-b]pyridin-1-yl)-3-fluorobut-2-en-1-amine dihydrochloride]",> 300,< 300,–,–
